{"source": "patent US20120142705A1", "about": "“ISATIN AND OXINDOLE COMPOUNDS” (priority 2010, published 2012)", "data": [{"biological_target": "T1, Recombinant human liver GK1 (GST-GK) (Homo sapiens, UniProt P35557)", "T1 construct": "made in house; host or cells: E. coli", "T1 sequence (P35557 1-466 isoform P35557-2)": "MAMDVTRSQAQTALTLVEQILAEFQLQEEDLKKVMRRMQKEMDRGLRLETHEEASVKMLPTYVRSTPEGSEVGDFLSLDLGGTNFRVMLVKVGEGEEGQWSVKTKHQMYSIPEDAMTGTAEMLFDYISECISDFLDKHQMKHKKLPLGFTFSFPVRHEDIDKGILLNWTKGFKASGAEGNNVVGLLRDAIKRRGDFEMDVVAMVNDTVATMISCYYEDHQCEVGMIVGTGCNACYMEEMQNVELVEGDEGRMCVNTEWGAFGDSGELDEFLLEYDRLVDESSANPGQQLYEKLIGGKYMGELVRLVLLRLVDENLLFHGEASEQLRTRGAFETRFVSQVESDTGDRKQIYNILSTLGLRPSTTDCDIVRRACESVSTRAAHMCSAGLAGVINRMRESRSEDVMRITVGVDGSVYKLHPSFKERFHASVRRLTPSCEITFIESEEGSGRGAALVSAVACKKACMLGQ", "assay": "In vitro glucokinase activity, G6PDH-coupled spectrophotometric assay", "type": "biochemical", "conditions": "5 mM D-glucose, 30° C., pH 7.1", "method_in_brief": "(§1)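 GST-fused human liver GK1 from E. coli, run at 30° C. in pH 7.1 HEPES with 5 mM glucose, 1 mM ATP and 10% DMSO, coupled via G6PDH to NADH. OD340 rate measured after enzyme start; SC1.5 is the activator concentration raising activity 50% over DMSO control.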", "units": {"SC1.5 (concentration of activator that produced a 50% increase in the activity of GK)": "µM"}, "values": [{"smiles": "Cc1ccc2c(c1)CC(=O)N2C(CC(C)C)C(=O)Nc1nccs1", "note": "(centres unmarked) [Example 88, 4-Methyl-2-(5-methyl-2-oxo-2,3-dihydro-indol-1-yl)-pentanoic acid thiazol-2-ylamide]", "SC1.5 (concentration of activator that produced a 50% increase in the activity of GK)": 22.88}, {"smiles": "Cc1ccc2c(c1)CC(=O)N2C(CC(C)C)C(=O)Nc1ccccn1", "note": "(centres unmarked) [Example 90, 4-Methyl-2-(5-methyl-2-oxo-2,3-dihydro-indol-1-yl)-pentanoic acid pyridin-2-ylamide]", "SC1.5 (concentration of activator that produced a 50% increase in the activity of GK)": 12.84}, {"smiles": "Cc1ccc2c(c1)CC(=O)N2C(CC(C)C)C(=O)Nc1cnccn1", "note": "(centres unmarked) [Example 91, 4-Methyl-2-(5-methyl-2-oxo-2,3-dihydro-indol-1-yl)-pentanoic acid pyrazin-2-ylamide]", "SC1.5 (concentration of activator that produced a 50% increase in the activity of GK)": 28.45}, {"smiles": "O=C1C(=O)N(C(CC2CCCC2)C(=O)Nc2nccs2)c2ccc(Cl)cc21", "note": "(centres unmarked) [Example 92, 2-(5-Chloro-2,3-dioxo-2,3-dihydro-indol-1-yl)-3-cyclopentyl-N-thiazol-2-yl-propionamide]", "SC1.5 (concentration of activator that produced a 50% increase in the activity of GK)": 3.01}, {"smiles": "O=C1C(=O)N(C(CC2CCCC2)C(=O)Nc2ccn(C[C@@H](O)CO)n2)c2ccc(Cl)cc21", "note": "(stereo partly drawn) [Example 93, 2-(5-Chloro-2,3-dioxo-2,3-dihydro-indol-1-yl)-3-cyclopentyl-N-[1-((R)-2,3-dihydroxy-propyl)-1H-pyrazol-3-yl]-propionamide]", "SC1.5 (concentration of activator that produced a 50% increase in the activity of GK)": 3.36}, {"smiles": "O=C1C(=O)N(C(CC2CCCC2)C(=O)Nc2ccccn2)c2ccc(Cl)cc21", "note": "(centres unmarked) [Example 94, 2-(5-Chloro-2,3-dioxo-2,3-dihydro-indol-1-yl)-3-cyclopentyl-N-pyridin-2-yl-propionamide]", "SC1.5 (concentration of activator that produced a 50% increase in the activity of GK)": 1.04}, {"smiles": "Cn1ccc(NC(=O)C(CC2CCCC2)N2C(=O)C(=O)c3cc(Cl)ccc32)n1", "note": "(centres unmarked) [Example 95, 2-(5-Chloro-2,3-dioxo-2,3-dihydro-indol-1-yl)-3-cyclopentyl-N-(1-methyl-1H-pyrazol-3-yl)-propionamide]", "SC1.5 (concentration of activator that produced a 50% increase in the activity of GK)": 7.27}, {"smiles": "O=C1C(=O)N(C(CC2CCCC2)C(=O)Nc2cnccn2)c2ccc(Cl)cc21", "note": "(centres unmarked) [Example 96, 2-(5-Chloro-2,3-dioxo-2,3-dihydro-indol-1-yl)-3-cyclopentyl-N-pyrazin-2-yl-propionamide]", "SC1.5 (concentration of activator that produced a 50% increase in the activity of GK)": 4.04}, {"smiles": "O=C(Nc1cnccn1)C(CC1CCCC1)N1C(=O)Cc2cc(Cl)ccc21", "note": "(centres unmarked) [Example 97, 2-(5-Chloro-2-oxo-2,3-dihydro-indol-1-yl)-3-cyclopentyl-N-pyrazin-2-yl-propionamide]", "SC1.5 (concentration of activator that produced a 50% increase in the activity of GK)": 1.84}]}, {"biological_target": "T1, Recombinant human liver GK1 (GST-GK)", "assay": "In vitro glucokinase activity, G6PDH-coupled spectrophotometric assay", "type": "biochemical", "conditions": "@ 30 uM; 5 mM D-glucose, 30° C.", "method_in_brief": "as §1", "values": [{"smiles": "Cc1ccc2c(c1)C(=O)C(=O)N2C(CC(C)C)C(=O)Nc1cnccn1", "note": "(centres unmarked) [Example 84, 4-Methyl-2-(5-methyl-2,3-dioxo-2,3-dihydro-indol-1-yl)-pentanoic acid pyrazin-2-ylamide]", "fold induction at 30 µM": 1.29}, {"smiles": "Cc1ccc2c(c1)C(=O)C(=O)N2C(CC(C)C)C(=O)Nc1ccccn1", "note": "(centres unmarked) [Example 85, 4-Methyl-2-(5-methyl-2,3-dioxo-2,3-dihydro-indol-1-yl)-pentanoic acid pyridin-2-ylamide]", "fold induction at 30 µM": 1.16}, {"smiles": "Cc1ccc2c(c1)C(=O)C(=O)N2C(CC(C)C)C(=O)Nc1ccn(C)n1", "note": "(centres unmarked) [Example 86, 4-Methyl-2-(5-methyl-2,3-dioxo-2,3-dihydro-indol-1-yl)-pentanoic acid (1-methyl-1H-pyrazol-3-yl)-amide]", "fold induction at 30 µM": 1.44}, {"smiles": "Cc1ccc2c(c1)C(=O)C(=O)N2C(CC(C)C)C(=O)Nc1nccs1", "note": "(centres unmarked) [Example 87, 4-Methyl-2-(5-methyl-2,3-dioxo-2,3-dihydro-indol-1-yl)-pentanoic acid thiazol-2-ylamide]", "fold induction at 30 µM": 1.16}, {"smiles": "Cc1ccc2c(c1)CC(=O)N2C(CC(C)C)C(=O)Nc1ccn(C)n1", "note": "(centres unmarked) [Example 89, 4-Methyl-2-(5-methyl-2-oxo-2,3-dihydro-indol-1-yl)-pentanoic acid (1-methyl-1H-pyrazol-3-yl)-amide]", "fold induction at 30 µM": 1.23}]}]}
